Columns and labels:
[1] = target: T1, Disintegrin and metalloproteinase domain-containing protein 10 (Homo sapiens, UniProt O14672)
T1 sequence (O14672 whole entry): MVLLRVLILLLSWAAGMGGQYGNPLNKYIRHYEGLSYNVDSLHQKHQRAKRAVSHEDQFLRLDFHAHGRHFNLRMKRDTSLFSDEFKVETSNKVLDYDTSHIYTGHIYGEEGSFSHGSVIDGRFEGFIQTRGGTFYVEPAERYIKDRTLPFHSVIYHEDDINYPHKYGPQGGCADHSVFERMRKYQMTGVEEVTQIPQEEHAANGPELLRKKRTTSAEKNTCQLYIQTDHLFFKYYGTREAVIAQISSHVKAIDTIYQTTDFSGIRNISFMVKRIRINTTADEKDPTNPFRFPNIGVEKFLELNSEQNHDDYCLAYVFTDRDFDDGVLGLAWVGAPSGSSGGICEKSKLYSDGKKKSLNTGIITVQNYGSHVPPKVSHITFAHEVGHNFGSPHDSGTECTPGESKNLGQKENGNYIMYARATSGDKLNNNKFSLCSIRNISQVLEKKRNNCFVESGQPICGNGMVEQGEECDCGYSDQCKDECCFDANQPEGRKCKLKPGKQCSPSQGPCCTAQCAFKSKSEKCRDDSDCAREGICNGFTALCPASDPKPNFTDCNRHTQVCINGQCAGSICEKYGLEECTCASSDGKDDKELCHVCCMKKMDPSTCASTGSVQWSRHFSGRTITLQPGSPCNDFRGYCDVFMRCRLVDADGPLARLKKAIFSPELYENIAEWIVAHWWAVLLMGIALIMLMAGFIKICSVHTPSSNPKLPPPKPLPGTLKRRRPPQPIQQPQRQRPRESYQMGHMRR

[2] = target: T2, Interstitial collagenase (Homo sapiens, UniProt P03956)
T2 sequence (P03956 whole entry): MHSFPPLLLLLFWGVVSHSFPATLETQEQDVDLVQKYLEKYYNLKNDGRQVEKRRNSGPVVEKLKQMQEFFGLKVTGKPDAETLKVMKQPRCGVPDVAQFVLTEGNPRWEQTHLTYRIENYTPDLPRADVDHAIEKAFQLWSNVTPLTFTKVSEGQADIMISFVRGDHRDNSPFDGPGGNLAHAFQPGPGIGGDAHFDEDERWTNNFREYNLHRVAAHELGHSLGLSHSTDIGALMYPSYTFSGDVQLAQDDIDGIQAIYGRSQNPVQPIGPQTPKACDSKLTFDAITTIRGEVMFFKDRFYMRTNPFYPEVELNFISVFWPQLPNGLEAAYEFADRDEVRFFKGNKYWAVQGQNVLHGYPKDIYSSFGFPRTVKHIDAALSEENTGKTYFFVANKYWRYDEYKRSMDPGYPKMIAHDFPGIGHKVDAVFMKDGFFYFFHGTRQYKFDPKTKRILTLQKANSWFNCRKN

[3] = target: T3, Matrilysin (Homo sapiens, UniProt P09237)
T3 sequence (P09237 whole entry): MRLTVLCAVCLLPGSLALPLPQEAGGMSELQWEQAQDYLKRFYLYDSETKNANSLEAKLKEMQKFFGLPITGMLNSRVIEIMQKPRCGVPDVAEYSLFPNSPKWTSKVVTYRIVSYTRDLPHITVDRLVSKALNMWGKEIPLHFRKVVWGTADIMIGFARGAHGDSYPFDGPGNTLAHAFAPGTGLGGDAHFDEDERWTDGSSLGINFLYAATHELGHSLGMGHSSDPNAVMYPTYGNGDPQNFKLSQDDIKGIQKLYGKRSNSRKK

[4] = target: 72 kDa type IV collagenase (Homo sapiens, UniProt P08253)
[5] = target: Matrix metalloproteinase-14 (Homo sapiens, UniProt P50281)
[6] = target: Stromelysin-1 (Homo sapiens, UniProt P08254)
[7] = Permeability from apical to basolateral side of human Caco-2 cells; format: ADME, cell-based; conditions: read-out: permeability
[8] = AUC in Sprague-Dawley rat at 10 mg/kg, po; format: ADME, organism-based; parameters: dose 10 mg/kg, route oral; conditions: plasma

Stromelysin-1, sequence (P08254 whole entry): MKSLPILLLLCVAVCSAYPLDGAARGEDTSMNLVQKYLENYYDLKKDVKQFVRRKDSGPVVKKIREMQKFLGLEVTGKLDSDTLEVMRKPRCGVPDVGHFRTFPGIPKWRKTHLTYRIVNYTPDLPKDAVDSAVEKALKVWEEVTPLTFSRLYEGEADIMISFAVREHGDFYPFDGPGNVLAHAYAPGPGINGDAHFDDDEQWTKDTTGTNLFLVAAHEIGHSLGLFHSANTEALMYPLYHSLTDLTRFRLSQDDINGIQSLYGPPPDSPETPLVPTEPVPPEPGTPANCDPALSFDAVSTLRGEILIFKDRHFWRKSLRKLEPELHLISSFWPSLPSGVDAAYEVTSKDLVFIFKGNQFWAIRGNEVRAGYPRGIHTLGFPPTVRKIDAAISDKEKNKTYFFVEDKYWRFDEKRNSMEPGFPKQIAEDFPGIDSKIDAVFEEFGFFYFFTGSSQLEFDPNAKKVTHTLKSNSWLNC
72 kDa type IV collagenase, sequence (P08253 whole entry): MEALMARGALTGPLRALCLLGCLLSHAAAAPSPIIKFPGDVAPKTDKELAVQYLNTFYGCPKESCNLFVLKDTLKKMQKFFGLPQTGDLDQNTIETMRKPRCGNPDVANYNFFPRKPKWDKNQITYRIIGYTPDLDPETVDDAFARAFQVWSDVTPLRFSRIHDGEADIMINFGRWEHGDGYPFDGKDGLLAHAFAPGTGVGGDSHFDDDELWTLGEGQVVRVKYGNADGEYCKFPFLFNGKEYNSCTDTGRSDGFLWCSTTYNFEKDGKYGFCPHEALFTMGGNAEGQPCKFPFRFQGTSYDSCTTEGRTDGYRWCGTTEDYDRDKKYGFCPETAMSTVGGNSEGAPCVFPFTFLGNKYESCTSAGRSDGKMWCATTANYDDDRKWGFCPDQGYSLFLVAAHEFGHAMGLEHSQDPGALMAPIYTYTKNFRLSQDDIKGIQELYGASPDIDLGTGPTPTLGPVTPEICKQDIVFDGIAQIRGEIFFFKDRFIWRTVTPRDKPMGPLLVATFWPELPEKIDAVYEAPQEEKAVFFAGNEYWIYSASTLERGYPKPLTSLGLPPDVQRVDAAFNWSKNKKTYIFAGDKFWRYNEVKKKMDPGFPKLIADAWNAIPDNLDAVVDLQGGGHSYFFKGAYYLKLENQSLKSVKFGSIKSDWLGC

Cc1cc(COc2ccc(C[C@]3(C(N)=O)C[C@@H]3C(=O)NO)cc2)c2ccccc2n1
Ki [1]: > 10 mM | Ki [2]: > 10 mM | Ki [3]: 0.11 mM | Ki [4]: 1 mM | Ki [5]: 2.4 mM | Ki [6]: 0.058 mM

NC(=O)[C@@]1(Cc2ccc(OCc3cc(-c4ccccc4)nc4ccccc34)c(F)c2)C[C@@H]1C(=O)NO
Papp A→B [7]: 0.3 ×10⁻⁶ cm/s

N#C[C@@]1(Cc2ccc(OCc3cc(-c4ccccc4)nc4ccccc34)cc2)C[C@@H]1C(=O)NO
AUC [8]: > 2.5 µM·h

O=C(NO)[C@H]1C[C@]1(Cc1ccc(OCc2cc(-c3ccccc3)nc3ccccc23)cc1)C(=O)N1CCC[C@H]1CO
Ki [1]: > 10 mM | Ki [2]: > 10 mM | Ki [3]: > 10 mM | Ki [4]: > 10 mM | Ki [5]: > 10 mM | Ki [6]: > 10 mM
